Tests used:
Type in all cases: cell-based
[1] = tested on: MCF7 cells; experiment: Long-term cell survival (colony count after three weeks) after oligonucleotide introduction and DNA damage; settings: colonies counted after three weeks
Procedure: (§1) Short-term and long-term cell survival rates were also measured when TP53R2H expression was suppressed with an antisense oligonucleotide and DNA was damaged.
(§2) 2×10^6 MCF7 cells) were propagated on 10 cm Petri dishes, and after 24 hours a p53R2 antisense oligonucleotide (AS3), a sense oligonucleotide (SE3) and a p53 antisense oligonucleotide (p53AS) were introduced using a lipofectin reagent. 4 hours later the cellular DNA was damaged (3 or 14 Gy γ-ray irradiation, adiamycin 0.2 μg/ml, UV 10 J/m^2).
(§3) In order to study short-term cell survival, the cells were stripped immediately after DNA damage and re-propagated on 6-hole plates to a density of 3×10^5, and cell numbers were counted every day for 6 days. To study long-term cell survival, the cells were re-propagated after DNA damage on 10 cm plates to a density of 1×10^4 or 1×10^3, and the number of colonies 1 mm or more in diameter was counted after three weeks and expressed as a percentage.

[2] = tested on: MCF7 cells; experiment: Short-term cell survival (cell numbers counted every day for 6 days) after oligonucleotide introduction and DNA damage; settings: in both the short- and long-term, after DNA damage (Table 1 and FIG. 6)
Procedure: as §1, §2, §3

[3] = tested on: MCF7 cells; experiment: DNA repair activity through ribonucleotide reductase activity ([3H]-CDP converted to [3H]-dCTP in damaged DNA) after oligonucleotide introduction; settings: 14 Gy γ-ray irradiation 4 hours after lipofectin introduction, cells collected after 0, 24 and 48 hours (FIG. 5)
Procedure: DNA repair activity through ribonucleotide reductase activity was measured by converting [^3H]-CDP to [^3H]-dCTP through ribonucleotide reductase in cells, in which the DNA had been damaged, and measuring the radioactivity of [^3H]-dCTP in the damaged DNA.
1×10^6 MCF7 cells were propagated on 10 cm petri dishes, cellular DNA was damaged (14 Gy γ-ray irradiation) 24 hours later, and after 0, 6, 24 and 48 hours the cells were harvested. After washing the cells with Solution A (150 mM sucrose, 80 mM KCl, 35 mM Hepes (pH 7.4), 5 mM potassium phosphate (pH 7.4), 5 mM MgCl2, 0.5 mM CaCl2), these cells were treated for 1 minute at 4° C. with Solution A containing 0.25 mg/ml lysolecithin. […] 75 μl of 0.2N NaOH was added to the DNA obtained, which was then incubated for 30 minutes at 37° C. and mixed with 5 ml of AQUASOL-2 (Packard), and radioactivity was measured with an Aloka LSC-5100 liquid scintillation counter. […]
2×10^6 MCF7 cells were propagated on 10 cm petri dishes, and after 24 hours a TP53R2H antisense oligonucleotide (AS3) a sense oligonucleotide (SE3) and a p53 antisense oligonucleotide (p53AS) were introduced according to attached protocol using a lipofectin reagent (GIBCO BRL). […] DNA repair activity was then measured in the same way as in Example 4 above.

Substance	long-term cell survival (number of colonies 1 mm or more in diameter, expressed as a percentage) ([1]; Adriamycin (0.2 μg/ml)) [%]	long-term cell survival (number of colonies 1 mm or more in diameter, expressed as a percentage) ([1]; UV (10 J/m2)) [%]	long-term cell survival (number of colonies 1 mm or more in diameter, expressed as a percentage) ([1]; γ-radiation (3Gy)) [%]	sensitivity to DNA damage / cell death [2]	DNA repair activity [3]
AsCsAsTsTsTsAsCsCsTsCsAsTsCsCsT (ACATTTACCTCATCCT; all phosphorothioate, sugars by position and methylation of C not given here) [AS3]	16	22	59	sensitivity to DNA damage increases and cell death is more likely	DNA repair activity declined
AsGsGsAsTsGsAsGsGsTsAsAsAsTsGsT (AGGATGAGGTAAATGT; all phosphorothioate, sugars by position not given here) [SE3]	100	100	100		
CsCsCsTsGsCsTsCsCsCsCsCsCsTsGsGsCsTsCsC (CCCTGCTCCCCCCTGGCTCC; all phosphorothioate, sugars by position and methylation of C not given here) [p53AS]	10	11	15		DNA repair activity also declined

Reference: US7256279B2, “Protein having ribonucleotide reductase activity and DNA thereof” (Takeda Pharmaceutical Company Limited, priority 1999, dated 2007)
